# Experimental data taken from patent publication US10377725B2, “Phenyl amino pyrimidine compound or polymorph of salt thereof” (Suzhou Zelgen Biopharmaceuticals Co., Ltd., priority 2015, dated 2019).
# How the values were obtained:
# [1] = accelerated stability test of polymorphs; format: physicochemical; conditions: accelerated test 40±2° C., 75%±5% RH, 6 months; for purity after accelerated test: compared to freshly prepared (0 Month)
# [2] = hygroscopicity test of polymorphs (Chinese Pharmacopoeia 2010 edition, Appendix XIX J); format: physicochemical; conditions: 25° C.±1° C., saturated ammonium sulfate solution, 24 h
# Experimental: The test was performed according to the guiding principles of drug's hygroscopic test (Chinese Pharmacopoeia 2010 edition, Appendix XIX J).
# 1. Take 4 dry glass weighing bottles with lids (60 mm of the outer diameter and 30 mm of the height). On the day before the test, the bottles were placed in a glass dryer (“constant temperature and humidity dryer”) where a saturated ammonium sulfate solution was placed, and the glass dryer was placed in the bottom of a constant temperature and humidity box at 25° C.±1° C.
# 2. After each empty weighing bottle together with its lid were placed in the “constant temperature and humidity dryer” for 24 hours, stabilize precisely the weight of each unit by a set (one weighing bottle+its lid), recorded as m1.
# 3. A polymorph II sample was taken and tiled in a glass weighing bottle which had been weighed (the thickness of a sample was about 1 mm), and the bottle was covered, the weight of each weighing bottle (one weighing bottle+its lid+the sample) was precisely weighed, recorded as m2.
# 3. Each sample was placed in the “constant temperature and humidity dryer” for 24 h, and then the weight of each weighing bottle (one weighing bottle+its lid+the sample) was precisely weighed, recorded as m3.
# 4. The percentage of hygroscopicity weight increase of each sample was calculated (the formula was shown as follows), and it is defined as no or almost no hygroscopicity when the percentage of hygroscopicity weight increase is less than 0.2%. It is defined as slightly hygroscopicity when the percentage of hygroscopicity weight increase is equal or greater than 0.2%, but less than 2.0%. the percentage of weight increase=[(m3−m2)/(m2−m1)]×100%
stability of crystal form [1],purity after accelerated test [1],percentage of weight increase [2],Structure (SMILES),degradated impurity [1],hygroscopicity [2]
very stable,above 99%,–,"Cl.[2H]C1([2H])CN(c2ccc(Nc3nccc(-c4ccc(C(=O)NCC#N)cc4)n3)cc2)CC([2H])([2H])O1 [polymorph III, N-(cyanomethyl)-4-(2-((4-(2′,2′,6′,6′-d4-morpholino)phenyl)amino)pyrimidin-4-yl)benzamide monohydrochloride]",no obvious degradated impurity was observed,–
very stable,above 99%,0.24%,"Cl.Cl.O.[2H]C1([2H])CN(c2ccc(Nc3nccc(-c4ccc(C(=O)NCC#N)cc4)n3)cc2)CC([2H])([2H])O1 [polymorph II, N-(cyanomethyl)-4-(2-((4-(2′,2′,6′,6′-d4-morpholino)phenyl)amino)pyrimidin-4-yl)benzamide dihydrochloride monohydrate]",no obvious degradated impurity was observed,"slightly hygroscopicity (slightly hygroscopicity when the percentage of hygroscopicity weight increase is equal or greater than 0.2%, but less than 2.0%)"
very stable,above 99%,–,"Cl.Cl.[2H]C1([2H])CN(c2ccc(Nc3nccc(-c4ccc(C(=O)NCC#N)cc4)n3)cc2)CC([2H])([2H])O1 [polymorph I, N-(cyanomethyl)-4-(2-((4-(2′,2′,6′,6′-d4-morpholino)phenyl)amino)pyrimidin-4-yl)benzamide dihydrochloride]",no obvious degradated impurity was observed,"slightly hygroscopicity (slightly hygroscopicity when the percentage of hygroscopicity weight increase is equal or greater than 0.2%, but less than 2.0%)"
very stable,above 99%,–,"[2H]C1([2H])COCC([2H])([2H])N1c1ccc(Nc2nccc(-c3ccc(C(=O)NCC#N)cc3)n2)cc1 [polymorph V, N-(cyanomethyl)-4-(2-((4-(2′,2′,6′,6′-d4-morpholino)phenyl)amino)pyrimidin-4-yl)benzamide]",no obvious degradated impurity was observed,–
